Laboratory results taken from ChEMBL document CHEMBL3046105, “Synthesis and antihyperlipidemic efficiency of berberine-based HMG-CoA reductase inhibitor” (Med Chem Res, 2012).

Legend:
Oryctolagus cuniculus [1] = test: Toxicity in hyperlipidemic New Zealand Oryctolagus cuniculus (rabbit) assessed as effect on kidney coefficient at 5 to 15 mg/kg/day, po for 2 months; format: organism-based; set-up: route oral; settings: in vivo
Oryctolagus cuniculus [2] = test: Toxicity in hyperlipidemic New Zealand Oryctolagus cuniculus (rabbit) assessed as histopathological examination of heart at 5 to 15 mg/kg/day, po for 2 months by hematoxylin-eosin staining analysis; format: organism-based; set-up: route oral; settings: in vivo
Oryctolagus cuniculus [3] = test: Toxicity in hyperlipidemic New Zealand Oryctolagus cuniculus (rabbit) assessed as histopathological examination of kidney at 5 to 15 mg/kg/day, po for 2 months by hematoxylin-eosin staining analysis; format: organism-based; set-up: route oral; settings: in vivo
Oryctolagus cuniculus [4] = test: Toxicity in hyperlipidemic New Zealand Oryctolagus cuniculus (rabbit) assessed as alanine aminotransferase level at 5 mg/kg/day, po for 2 months (reference value: 92.14 +/- 14.3 U/l); format: organism-based; set-up: route oral; settings: in vivo
Oryctolagus cuniculus [5] = test: Toxicity in hyperlipidemic New Zealand Oryctolagus cuniculus (rabbit) assessed as alanine aminotransferase level at 15 mg/kg/day, po for 2 months (reference value: 92.14 +/- 14.3 U/l); format: organism-based; set-up: route oral; settings: in vivo
Oryctolagus cuniculus [6] = test: Toxicity in high fat-high cholesterol fed New Zealand Oryctolagus cuniculus (rabbit) assessed as mortality at 15 mg/kg, po for 40 days; format: organism-based; set-up: dose 15 mg/kg, route oral; settings: in vivo, 960 h
Oryctolagus cuniculus [7] = test: Toxicity in hyperlipidemic New Zealand Oryctolagus cuniculus (rabbit) assessed as alanine aminotransferase level at 10 mg/kg/day, po for 2 months (reference value: 92.14 +/- 14.3 U/l); format: organism-based; set-up: route oral; settings: in vivo
Oryctolagus cuniculus [8] = test: Antihyperlipidemic activity in high fat-high cholesterol fed New Zealand Oryctolagus cuniculus (rabbit) assessed as high-density lipoprotein-cholesterol level in blood at 15 mg/kg, po for 40 days (reference value: 0.69 +/- 0.02 mmol/l); format: functional
Oryctolagus cuniculus [9] = test: Antihyperlipidemic activity in high fat-high cholesterol fed New Zealand Oryctolagus cuniculus (rabbit) assessed as high-density lipoprotein-cholesterol level in blood at 15 mg/kg, po for 40 days (reference value: 0.67 +/- 0.22 mmol/l); format: functional
Oryctolagus cuniculus [10] = test: Toxicity in hyperlipidemic New Zealand Oryctolagus cuniculus (rabbit) assessed as effect on pancreas coefficient at 5 to 15 mg/kg/day, po for 2 months; format: organism-based; set-up: route oral; settings: in vivo
Oryctolagus cuniculus [11] = test: Antihyperlipidemic activity in high fat-high cholesterol fed New Zealand Oryctolagus cuniculus (rabbit) assessed as high-density lipoprotein-cholesterol level in blood at 5 mg/kg, po for 40 days (reference value: 0.69 +/- 0.02 mmol/l); format: functional
Oryctolagus cuniculus [12] = test: Toxicity in hyperlipidemic New Zealand Oryctolagus cuniculus (rabbit) assessed as effect on liver coefficient at 5 to 15 mg/kg/day, po for 2 months; format: organism-based; set-up: route oral; settings: in vivo
Oryctolagus cuniculus [13] = test: Toxicity in hyperlipidemic New Zealand Oryctolagus cuniculus (rabbit) assessed as total bilirubin level at 5 mg/kg/day, po for 2 months (reference value: 28.45 +/- 11.55 Umol/l); format: organism-based; set-up: route oral; settings: in vivo
Oryctolagus cuniculus [14] = test: Antihyperlipidemic activity in high fat-high cholesterol fed New Zealand Oryctolagus cuniculus (rabbit) assessed as low-density lipoprotein-cholesterol level in blood at 10 mg/kg, po for 40 days (reference value: 3.47 +/- 0.44 mmol/l); format: functional
Oryctolagus cuniculus [15] = test: Toxicity in hyperlipidemic New Zealand Oryctolagus cuniculus (rabbit) assessed as effect on heart coefficient at 5 to 15 mg/kg/day, po for 2 months; format: organism-based; set-up: route oral; settings: in vivo
Oryctolagus cuniculus [16] = test: Antihyperlipidemic activity in high fat-high cholesterol fed New Zealand Oryctolagus cuniculus (rabbit) assessed as high-density lipoprotein-cholesterol level in blood at 10 mg/kg, po for 40 days (reference value: 0.69 +/- 0.02 mmol/l); format: functional
[17] = Toxicity in Mus musculus Kunming (mouse); format: organism-based; settings: in vivo
Oryctolagus cuniculus [18] = test: Antihyperlipidemic activity in high fat-high cholesterol fed New Zealand Oryctolagus cuniculus (rabbit) assessed as triglyceride level in blood at 15 mg/kg, po for 40 days (reference value: 2.07 +/- 0.33 mmol/l); format: functional

CCCCCCCCCCCCCCCCc1c2c(OC)c(OC)ccc2cc2[n+]1CCc1cc3c(cc1-2)OCO3.[Cl-] [8-HEXADECYL-BERBERINE CHLORIDE]
Activity (Oryctolagus cuniculus [1]): Non-toxic
Activity (Oryctolagus cuniculus [2]): Non-toxic
Activity (Oryctolagus cuniculus [3]): Non-toxic
Activity (Oryctolagus cuniculus [4]): 82.36 U/L
Activity (Oryctolagus cuniculus [5]): 64.63 U/L
Activity (Oryctolagus cuniculus [6]): Non-toxic
Activity (Oryctolagus cuniculus [7]): 71.53 U/L
Activity (Oryctolagus cuniculus [8]): 750000 nmol/L
Activity (Oryctolagus cuniculus [9]): 750000 nmol/L
Activity (Oryctolagus cuniculus [10]): Non-toxic
Activity (Oryctolagus cuniculus [11]): 700000 nmol/L
Activity (Oryctolagus cuniculus [12]): Non-toxic
Activity (Oryctolagus cuniculus [13]): 15.6 µmol/L
Activity (Oryctolagus cuniculus [14]): 2.46e+06 nmol/L
Activity (Oryctolagus cuniculus [15]): Non-toxic
Activity (Oryctolagus cuniculus [16]): 720000 nmol/L
LD50 [17]: > 1000 mg/kg
Activity (Oryctolagus cuniculus [18]): 1.25e+06 nmol/L
